The results in this text go back to patent publication US11083196B2, “Microbiocidal oxadiazole derivatives” (SYNGENTA PARTICIPATIONS AG, priority 2016, dated 2021).

A value given as a limit tells only on which side of the number the result lay.

The test system of data set [1] is Puccinia recondita f. sp. tritici. Description: Fungicidal activity against Puccinia recondita f. sp. tritici / wheat / leaf disc preventative (brown rust). It is filed as in vivo. To be noted: foliar, 168 h, wheat leaf segments cv. Kanzler, inoculated 1 day after application, assessed 7-9 days after application, compared to untreated control. The protocol: Leaf disks or leaf segments of various plant species are cut from plants grown in a greenhouse. The cut leaf disks or segments are placed in multiwell plates (24-well format) onto water agar. The leaf disks are sprayed with a test solution before (preventative) or after (curative) inoculation. Compounds to be tested are prepared as DMSO solutions (max. 10 mg/ml) which are diluted to the appropriate concentration with 0.025% Tween20 just before spraying. The inoculated leaf disks or segments are incubated under defined conditions (temperature, relative humidity, light, etc.) according to the respective test system. A single evaluation of disease level is carried out 3 to 14 days after inoculation, depending on the pathosystem. Percent disease control relative to the untreated check leaf disks or segments is then calculated. Wheat leaf segments cv. Kanzler are placed on agar in multiwell plates (24-well format) and sprayed with the formulated test compound diluted in water. The leaf disks are inoculated with a spore suspension of the fungus 1 day after application. The inoculated leaf segments are incubated at 19° C. and 75% rh under a light regime of 12 h light/12 h darkness in a climate cabinet and the activity of a compound is assessed as percent disease control compared to untreated when an appropriate level of disease damage appears in untreated check leaf segments (7-9 days after application).

Data set [2] deals with Glomerella lagenarium (Colletotrichum lagenarium). Put plainly: Fungicidal activity against Glomerella lagenarium (Colletotrichum lagenarium), liquid culture / cucumber / preventative (anthracnose). Format: cell-based. Conditions: Colletotrichum orbiculare, liquid culture (PDB), growth inhibition measured photometrically 3-4 days after application, compared to untreated control. The protocol: Mycelia fragments or conidia suspensions of a fungus, prepared either freshly from liquid cultures of the fungus or from cryogenic storage, are directly mixed into nutrient broth. DMSO solutions of the test compound (max. 10 mg/ml) is diluted with 0.025% Tween20 by a factor of 50 and 10 μl of this solution is pipetted into a microtiter plate (96-well format). The nutrient broth containing the fungal spores/mycelia fragments is then added to give an end concentration of the tested compound. The test plates are incubated in the dark at 24° C. and 96% relative humidity. The inhibition of fungal growth is determined photometrically after 2 to 7 days, depending on the pathosystem, and percent antifungal activity relative to the untreated check is calculated. Conidia of the fungus from cryogenic storage are directly mixed into nutrient broth (PDB potato dextrose broth). After placing a (DMSO) solution of test compound into a microtiter plate (96-well format), the nutrient broth containing the fungal spores is added. The test plates are incubated at 24° C. and the inhibition of growth is measured photometrically 3-4 days after application.

The subject of data set [3] is Puccinia recondita f. sp. tritici. Description: Fungicidal activity against Puccinia recondita f. sp. tritici / wheat / leaf disc curative (brown rust). Conditions: foliar, 144 h, wheat leaf segments cv. Kanzler, applied 1 day after inoculation, assessed 6-8 days after application, compared to untreated control. Format: in vivo. On the procedure:
Leaf disks or leaf segments of various plant species are cut from plants grown in a greenhouse. The cut leaf disks or segments are placed in multiwell plates (24-well format) onto water agar. The leaf disks are sprayed with a test solution before (preventative) or after (curative) inoculation. Compounds to be tested are prepared as DMSO solutions (max. 10 mg/ml) which are diluted to the appropriate concentration with 0.025% Tween20 just before spraying. The inoculated leaf disks or segments are incubated under defined conditions (temperature, relative humidity, light, etc.) according to the respective test system. A single evaluation of disease level is carried out 3 to 14 days after inoculation, depending on the pathosystem. Percent disease control relative to the untreated check leaf disks or segments is then calculated. Wheat leaf segments cv. Kanzler are placed on agar in multiwell plates (24-well format). The leaf segments are inoculated with a spore suspension of the fungus. Plates are stored in darkness at 19° C. and 75% rh. The formulated test compound diluted in water is applied 1 day after inoculation. The leaf segments are incubated at 19° C. and 75% rh under a light regime of 12 h light/12 h darkness in a climate cabinet and the activity of a compound is assessed as percent disease control compared to untreated when an appropriate level of disease damage appears in untreated check leaf segments (6-8 days after application).

With `Cl.FC(F)(F)c1nc(-c2ccc(C3CCCN3)cc2)no1` (stereo not drawn) [Compound A-34, 3-(4-pyrrolidin-1-ium-2-ylphenyl)-5-(trifluoromethyl)-1,2,4-oxadiazole; chloride], the melting point (commonly the temperature of the solid-liquid transition) lay within 154.4 to 158.5 °C. In addition, the pest or weed control – broadly, the degree to which the test organism was suppressed or injured, in per cent – at 200 ppm in data set [1] is not below 80%.
Regarding `O=C(N1CCCC1c1ccc(-c2noc(C(F)(F)F)n2)cc1)n1ccnc1` (stereo not drawn) [Compound A-35, imidazol-1-yl-[2-[4-[5-(trifluoromethyl)-1,2,4-oxadiazol-3-yl]phenyl]pyrrolidin-1-yl]methanone], in data set [2], the inhibition of growth (usually the relative decrease from the control value, in per cent) at 20 ppm is not below 80%. Further, the pest or weed control at 200 ppm in data set [3] and in data set [1] was not below 80% throughout.
As to `CON(C)C(=O)N1CCCC1c1ccc(-c2noc(C(F)(F)F)n2)cc1` (stereo not drawn) [Compound A-31, N-methoxy-N-methyl-2-[4-[5-(trifluoromethyl)-1,2,4-oxadiazol-3-yl]phenyl]pyrrolidine-1-carboxamide], the inhibition of growth at 20 ppm in data set [2] was not below 80%. The pest or weed control at 200 ppm in data set [3] and in data set [1] was not below 80% each time.
On to `Cc1csc(-c2ccc(-c3noc(C(F)(F)F)n3)cc2)n1` [Compound C-8, 3-[4-(4-methylthiazol-2-yl)phenyl]-5-(trifluoromethyl)-1,2,4-oxadiazole], for which the melting point lay within 89 to 90 °C. In data set [2], this compound came in with an inhibition of growth at 20 ppm not below 80%. This compound also registered a pest or weed control at 200 ppm in data set [3] not below 80%.
On to `COCC(=O)N1CCCC1c1ccc(-c2noc(C(F)(F)F)n2)cc1` (stereo not drawn) [Compound A-33, 2-methoxy-1-[2-[4-[5-(trifluoromethyl)-1,2,4-oxadiazol-3-yl]phenyl]pyrrolidin-1-yl]ethanone], for which the inhibition of growth at 20 ppm in data set [2] is not below 80%. The pest or weed control at 200 ppm in data set [3] and in data set [1] was not below 80% in each case.
As for `CC1=NOC(C)(c2ccc(-c3noc(C(F)(F)F)n3)cc2)C1` (stereo not drawn) [Compound A-13, 3-[4-(3,5-dimethyl-4H-isoxazol-5-yl)phenyl]-5-(trifluoromethyl)-1,2,4-oxadiazole], the inhibition of growth at 20 ppm in data set [2] is not below 80%. The pest or weed control at 200 ppm in data set [3] and in data set [1] was not below 80% each time.
Compound `COC(=O)N1CCCC1c1ccc(-c2noc(C(F)(F)F)n2)cc1` (stereo not drawn) [Compound A-32, methyl 2-[4-[5-(trifluoromethyl)-1,2,4-oxadiazol-3-yl]phenyl]pyrrolidine-1-carboxylate] yielded an inhibition of growth at 20 ppm in data set [2] not below 80%. The pest or weed control at 200 ppm in data set [3] is not below 80%.
In the case of `Cc1cc(-c2ccc(-c3noc(C(F)(F)F)n3)cc2)on1` [Compound C-11, 3-[4-(3-methylisoxazol-5-yl)phenyl]-5-(trifluoromethyl)-1,2,4-oxadiazole], the pest or weed control at 200 ppm in data set [3] and in data set [1] was not below 80% in each case.
For the compound `COC(=O)C1CC(c2ccc(-c3noc(C(F)(F)F)n3)cc2)=NO1` (stereo not drawn) [Compound A-8, methyl 3-[4-[5-(trifluoromethyl)-1,2,4-oxadiazol-3-yl]phenyl]-4,5-dihydroisoxazole-5-carboxylate], the inhibition of growth at 20 ppm in data set [2] is not below 80%. Moreover, the pest or weed control at 200 ppm in data set [1] is not below 80%.
Consider `FC(F)(F)c1nc(-c2ccc(-c3nc(CCl)cs3)cc2)no1` [Compound C-9, 3-[4-[4-(chloromethyl)thiazol-2-yl]phenyl]-5-(trifluoromethyl)-1,2,4-oxadiazole], for which the melting point was 91 to 92 °C. This compound also yielded an inhibition of growth at 20 ppm in data set [2] not below 80%. Further, the pest or weed control at 200 ppm in data set [1] was not below 80%.
In data set [2], `CC1(C)CC(=O)NC(c2ccc(-c3noc(C(F)(F)F)n3)cc2)O1` (stereo not drawn) [Compound A-11, 6,6-dimethyl-2-[4-[5-(trifluoromethyl)-1,2,4-oxadiazol-3-yl]phenyl]-1,3-oxazinan-4-one] showed an inhibition of growth at 20 ppm not below 80%. The pest or weed control at 200 ppm in data set [3] and in data set [1] was not below 80% each time.
In data set [2], `CCC(=O)N1CCCC1c1ccc(-c2noc(C(F)(F)F)n2)cc1` (stereo not drawn) [Compound A-37, 1-[2-[4-[5-(trifluoromethyl)-1,2,4-oxadiazol-3-yl]phenyl]pyrrolidin-1-yl]propan-1-one] came in with an inhibition of growth at 20 ppm not below 80%. In data set [3], this compound registered a pest or weed control at 200 ppm not below 80%.
The compound `Cc1ccccc1C(=O)NC1CSC(c2ccc(-c3noc(C(F)(F)F)n3)c(F)c2)=N1` (stereo not drawn) [Compound A-23, N-[2-[3-fluoro-4-[5-(trifluoromethyl)-1,2,4-oxadiazol-3-yl]phenyl]-4,5-dihydrothiazol-4-yl]-2-methyl-benzamids] had a melting point of 144 to 155 °C. Moreover, the inhibition of growth at 20 ppm in data set [2] is not below 80%. Also, the pest or weed control at 200 ppm in data set [1] is not below 80%.
`Nc1cccc(-c2ccc(-c3noc(C(F)(F)F)n3)cc2)n1` [Compound D-15, 6-[4-[5-(trifluoromethyl)-1,2,4-oxadiazol-3-yl]phenyl]pyridin-2-amine]: the melting point fell in the range of 135 to 140 °C. This compound also returned an inhibition of growth at 20 ppm in data set [2] not below 80%. Further, the pest or weed control at 200 ppm in data set [1] was not below 80%.
Take `O=C(Nc1cc(-c2ccc(-c3noc(C(F)(F)F)n3)cc2)ccn1)C(F)(F)F` [Compound D-19, 2,2,2-trifluoro-N-[4-[4-[5-(trifluoromethyl)-1,2,4-oxadiazol-3-yl]phenyl]-2-pyridyl]acetamide]: the melting point lay in the range of 230 to 235 °C. Further, the inhibition of growth at 20 ppm in data set [2] was not below 80%. The pest or weed control at 200 ppm in data set [1] was not below 80%.
`FC(F)(F)c1nc(-c2ccc(-c3ncco3)cc2)no1` [Compound C-3, 3-(4-oxazol-2-ylphenyl)-5-(trifluoromethyl)-1,2,4-oxadiazole] gave a melting point of 94 to 97 °C. Besides, the pest or weed control at 200 ppm in data set [3] was not below 80%. Besides, in data set [1], the pest or weed control at 200 ppm was not below 80%.
Consider `CC(C)(C)[S+]([O-])NC1CSC(c2ccc(-c3noc(C(F)(F)F)n3)c(F)c2)=N1` (stereo not drawn) [Compound A-26, N-[2-[3-fluoro-4-[5-(trifluoromethyl)-1,2,4-oxadiazol-3-yl]phenyl]-4,5-dihydro-thiazol-4-yl]-2-methyl-propane-2-sulfinamide], for which the inhibition of growth at 20 ppm in data set [2] is not below 80%. Besides, the pest or weed control at 200 ppm in data set [3] and in data set [1] was not below 80% each time.
In data set [2], `O=C(NC1CSC(c2ccc(-c3noc(C(F)(F)F)n3)c(F)c2)=N1)C1CC1` (stereo not drawn) [Compound A-22, N-[2-[3-fluoro-4-[5-(trifluoromethyl)-1,2,4-oxadiazol-3-yl]phenyl]-4,5-dihydrothiazol-4-yl]cyclopropanecarboxamide] showed an inhibition of growth at 20 ppm not below 80%. Besides, the pest or weed control at 200 ppm in data set [3] is not below 80%.
In turn, `COCC(=O)NC1CSC(c2ccc(-c3noc(C(F)(F)F)n3)c(F)c2)=N1` (stereo not drawn) [Compound A-25, N-[2-[3-fluoro-4-[5-(trifluoromethyl)-1,2,4-oxadiazol-3-yl]phenyl]-4,5-dihydrothiazol-4-yl]-2-methoxy-acetamide] yielded a melting point of 141 to 175 °C. The compound further gave an inhibition of growth at 20 ppm in data set [2] not below 80%. For the same compound, the pest or weed control at 200 ppm in data set [1] is not below 80%.
`CC(=O)N1CCCC1c1ccc(-c2noc(C(F)(F)F)n2)cc1` (stereo not drawn) [Compound A-38, 1-[2-[4-[5-(trifluoromethyl)-1,2,4-oxadiazol-3-yl]phenyl]pyrrolidin-1-yl]ethanone] registered an inhibition of growth at 20 ppm in data set [2] not below 80%. For the same compound, the pest or weed control at 200 ppm in data set [3] and in data set [1] was not below 80% throughout.
